Data on 20 molecules can be found in US20150299125A1, “PRODRUG BIPYRIDYLAMINOPYRIDINES AS SYK INHIBITORS” (MERCK SHARP & DOHME CORP., priority 2012, published 2015).

Each structure is given as a SMILES string. Converted amounts (≈) assume the structure as drawn. Read-outs that look alike come from different tables or passages of the source. Bounds are passed on as bounds.

A short description of data set [1]: Solubility in biorelevant fasted state simulated intestinal fluid (FaSSIF). In kind it is physicochemical. On the procedure: Solubility in Biorelevant Fasted State Simulated Intestinal Fluid (FaSSIF):
A 10 mM DMSO stock solution of compound to be tested is used. A 100 μM standard solution is generated by diluting 2.5 μL of the 10 mM stock solution with 247.5 μL of diluent (10% DMSO/10% MeCN/80% MeOH, v/v/v). A solubility solution is generated by diluting 5 μL of the 10 mM stock solution with 245 μL of FaSSIF (maximum solubility approximately 200 μM). […] The equilibrated solubility solution is filtered by centrifugation (3 minutes at 4000 rpm) using a 0.45 µm filter with a polypropylene membrane. The standard solution and the filtered equilibrated solubility solution are analyzed by HPLC/DAD. The solubility value is calculated by the following equation:
Solubility=(Peak area of sample/Peak area of standard)(Standard concentration)

The target of data set [2] is T1, recombinant human GST-Syk (Homo sapiens, UniProt P43405).
T1 construct: purchased Carna Biosciences 08-176
Kind of data set: Homogeneous Time-Resolved Fluorescence (HTRF) assay for the recombinant human Syk enzyme. The data set is classed as biochemical. Conditions: recombinant human GST-Syk 5 pM, ATP 25 μM, read-out: IC50. On the procedure:
Syk inhibition of the compounds of Formula (I) may be determined using the following assay protocol: Homogeneous Time-Resolved Fluorescence (HTRF) Assay for the Recombinant Human Syk Enzyme: A recombinant GST-hSyk fusion protein was used to measure potency of compounds to inhibit human Syk activity. […] Final volume of the reaction was 10 μL. Phosphorylation of the peptide was allowed to proceed for 45' at room temperature. To quench the reaction and detect the phosphorylated product, 2 nM of a Europium-anti-phosphotyrosine antibody (Perkin Elmer #AD0161) and 70 nM SA-APC (Perkin-Elmer #CR130-100) were added together in 15 mM Tris pH 7.5, 40 mM EDTA, 0.01% tween 20. Final volume of the quenching solution was 10 μL. The resulting HTRF signal was measured after 30 minutes on a EnVision (Perkin-Elmer) reader using a time-resolved fluorescence protocol.

Where [3] appears, read: 25 °C, fassif, kinetic from dmso stock, Solubility.

The term solubility denotes the dissolved amount per volume that the medium holds. For orientation: IC50 means the point on the concentration scale where inhibition reaches its midpoint.

Regarding `COCCN(C)C(=O)OC(C)OC(=O)[C@H]1CC[C@H]([C@@](C)(O)c2ccc(-c3cc(C)cc(Nc4cc(C(F)F)ccn4)n3)cn2)CC1` (single isomer, unassigned) [Example 4-1a], the concentration in solution in data set [1] (setting [3]) (solubility) was 40 µM (≈ 25.7 µg/mL). Besides, the IC50 in data set [2] turned out to be 24.7 nM.
The like results for `Cc1cc(Nc2cc(C(F)F)ccn2)nc(-c2ccc([C@](C)(O)[C@H]3CC[C@H](C(=O)OCC[S@+](C)[O-])CC3)nc2)c1` (single isomer, unassigned) [Example 7-1b] were, in that order, 52 µM (≈ 29.8 µg/mL) and 3.3 nM.
On the same counts, the results for `Cc1cc(Nc2cc(C(F)F)ccn2)nc(-c2ccc([C@](C)(O)[C@H]3CC[C@H](C(=O)OCOC(=O)OCC[S+](C)[O-])CC3)nc2)c1` (single isomer, unassigned) [Example 7-6] are 156 µM (≈ 101 µg/mL) and 1 nM.
Turning to `Cc1cc(Nc2cc(C(F)F)ccn2)nc(-c2ccc([C@](C)(O)[C@H]3CC[C@H](C(=O)O[C@H]4CC[C@@H](N)CC4)CC3)nc2)c1` [Example 1-2, cis-4-Aminocyclohexyl trans-4-[(1R)-1-(6-{[4-(difluoromethyl)pyridin-2-yl]amino}-4-methyl-2,3′-bipyridin-6′-yl)-1-hydroxyethyl]cyclohexanecarboxylate], the solubility in data set [1] (setting [3]) was 114 µM (≈ 66.1 µg/mL). Also, the IC50 in data set [2] was 4.2 nM.
Take `Cc1cc(Nc2cc(C(F)F)ccn2)nc(-c2ccc([C@](C)(O)[C@H]3CC[C@H](C(=O)O[C@H]4C[C@H](N)C4)CC3)nc2)c1` [Example 1-5, trans-3-Aminocyclobutyl trans-4-[(1R)-1-(6-{[4-(difluoromethyl)pyridin-2-yl]amino}-4-methyl-2,3′-bipyridin-6′-yl)-1-hydroxyethyl]cyclohexanecarboxylate]: in data set [1] (read-out: Solubility), the solubility is given as 164 µM (≈ 90.5 µg/mL). In data set [2], the IC50 was 4.4 nM.
As to `COCCOCCNC(=O)OCOC(=O)[C@H]1CC[C@H]([C@@](C)(O)c2ccc(-c3cc(C)cc(Nc4cc(C(F)F)ccn4)n3)cn2)CC1` [Example 4-3, 3-oxo-2,7,10-trioxa-4-azaundec-1-yl trans-4-[(1R)-1-(6-{[4-(difluoromethyl)pyridin-2-yl]amino}-4-methyl-2,3′-bipyridin-6′-yl)-1-hydroxyethyl]cyclohexanecarboxylate], the IC50 in data set [2] came to 2.4 nM.
Still for that read-out and setting: to `CCCC[N+](CCCC)(CCCC)COC(=O)[C@H]1CC[C@H]([C@@](C)(O)c2ccc(-c3cc(C)cc(Nc4cc(C(F)F)ccn4)n3)cn2)CC1` [Example 5-4, N,N-dibutyl-N-{[({trans-4-[(1R)-1-(6-{[4-(difluoromethyl)pyridin-2-yl]amino}-4-methyl-2,3′-bipyridin-6′-yl)-1-hydroxyethyl]cyclohexyl}carbonyl)oxy]methyl}butan-1-aminium] belongs 1.1 nM.
With `CCCCCCCC[N+](CCCCCCCC)(CCCCCCCC)COC(=O)[C@H]1CC[C@H]([C@@](C)(O)c2ccc(-c3cc(C)cc(Nc4cc(C(F)F)ccn4)n3)cn2)CC1` [Example 5-8, N-{[({trans-4-[(1R)-1-(6-{[4-(difluoromethyl)pyridin-2-yl]amino}-4-methyl-2,3′-bipyridin-6′-yl)-1-hydroxyethyl]cyclohexyl}carbonyl)oxy]methyl}-N,N-dioctyloctan-1-aminium], the IC50 in data set [2] was 2.5 nM.
The same measure, in the same setting: the result for `Cc1cc(Nc2cc(C(F)F)ccn2)nc(-c2ccc([C@](C)(O)[C@H]3CC[C@H](C(=O)OC[N+]4(C)CCC(F)(F)CC4)CC3)nc2)c1` [Example 5-13, 1-{[({trans-4-[(1R)-1-(6-{[4-(difluoromethyl)pyridin-2-yl]amino}-4-methyl-2,3′-bipyridin-6′-yl)-1-hydroxyethyl]cyclohexyl}carbonyl)oxy]methyl}-4,4-difluoro-1-methylpiperidinium] reads 1.3 nM.
Turning to `Cc1cc(Nc2cc(C(F)F)ccn2)nc(-c2ccc([C@](C)(O)[C@H]3CC[C@H](C(=O)OC[N+](C)(C)C(C)c4ccccc4)CC3)nc2)c1` (stereo partly drawn) [Example 5-15, N-{[({trans-4-[(1R)-1-(6-{[4-(difluoromethyl)pyridin-2-yl]amino}-4-methyl-2,3′-bipyridin-6′-yl)-1-hydroxyethyl]cyclohexyl}carbonyl)oxy]methyl}-N,N-dimethyl-1-phenylethanaminium], the half-inhibitory concentration (IC50) in data set [2] is less than 0.5 nM.
Turning to `Cc1cc(Nc2cc(C(F)F)ccn2)nc(-c2ccc([C@](C)(O)[C@H]3CC[C@H](C(=O)OC[N+]4(CC#N)CCCCC4)CC3)nc2)c1` [Example 5-16, 1-(cyanomethyl)-1-{[({trans-4-[(1R)-1-(6-{[4-(difluoromethyl)pyridin-2-yl]amino}-4-methyl-2,3′-bipyridin-6′-yl)-1-hydroxyethyl]cyclohexyl}carbonyl)oxy]methyl}piperidinium], in data set [2], the IC50 stood at 0.6 nM.
On the same count and under the same terms, the result for `CCCC[N+](C)(CCCC)COC(=O)[C@H]1CC[C@H]([C@@](C)(O)c2ccc(-c3cc(C)cc(Nc4cc(C(F)F)ccn4)n3)cn2)CC1` [Example 5-18, N-butyl-N-{[({trans-4-[(1R)-1-(6-{[4-(difluoromethyl)pyridin-2-yl]amino}-4-methyl-2,3′-bipyridin-6′-yl)-1-hydroxyethyl]cyclohexyl}carbonyl)oxy]methyl}-N-methylbutan-1-aminium] reads 1.4 nM; that for `CCOC(=O)C[N+](C)(C)COC(=O)[C@H]1CC[C@H]([C@@](C)(O)c2ccc(-c3cc(C)cc(Nc4cc(C(F)F)ccn4)n3)cn2)CC1` [Example 5-19, N-{[({trans-4-[(1R)-1-(6-{[4-(difluoromethyl)pyridin-2-yl]amino}-4-methyl-2,3′-bipyridin-6′-yl)-1-hydroxyethyl]cyclohexyl}carbonyl)oxy]methyl}-2-ethoxy-N,N-dimethyl-2-oxoethanaminium], 0.8 nM.
Still for that read-out and setting: to `Cc1cc(Nc2cc(C(F)F)ccn2)nc(-c2ccc([C@](C)(O)[C@H]3CC[C@H](C(=O)OC[N+](C)(C)CCc4ccccn4)CC3)nc2)c1` [Example 5-21, N-{[({trans-4-[(1R)-1-(6-{[4-(difluoromethyl)pyridin-2-yl]amino}-4-methyl-2,3′-bipyridin-6′-yl)-1-hydroxyethyl]cyclohexyl}carbonyl)oxy]methyl}-N,N-dimethyl-2-pyridin-2-ylethanaminium] belongs less than 0.5 nM.
For the molecule `CC[N+](CC)(COC(=O)[C@H]1CC[C@H]([C@@](C)(O)c2ccc(-c3cc(C)cc(Nc4cc(C(F)F)ccn4)n3)cn2)CC1)C1CCCCC1` [Example 5-22, N-{[({trans-4-[(1R)-1-(6-{[4-(difluoromethyl)pyridin-2-yl]amino}-4-methyl-2,3′-bipyridin-6′-yl)-1-hydroxyethyl]cyclohexyl}carbonyl)oxy]methyl}-N,N-diethylcyclohexanaminium], in data set [2], the IC50 came to 0.9 nM.
Consider `Cc1cc(Nc2cc(C(F)F)ccn2)nc(-c2ccc([C@](C)(O)[C@H]3CC[C@H](C(=O)OC[N+](C)(C4CCCCC4)C4CCCCC4)CC3)nc2)c1` [Example 5-24, N-cyclohexyl-N-{[({trans-4-[(1R)-1-(6-{[4-(difluoromethyl)pyridin-2-yl]amino}-4-methyl-2,3′-bipyridin-6′-yl)-1-hydroxyethyl]cyclohexyl}carbonyl)oxy]methyl}-N-methylcyclohexanaminium], for which the IC50 in data set [2] is 1 nM.
Consider `Cc1cc(Nc2cc(C(F)F)ccn2)nc(-c2ccc([C@](C)(O)[C@H]3CC[C@H](C(=O)OC[N+]4(C)CCN(CCO)CC4)CC3)nc2)c1` [Example 5-28, 1-{[({trans-4-[(1R)-1-(6-{[4-(difluoromethyl)pyridin-2-yl]amino}-4-methyl-2,3′-bipyridin-6′-yl)-1-hydroxyethyl]cyclohexyl}carbonyl)oxy]methyl}-4-(2-hydroxyethyl)-1-methylpiperazin-1-ium], for which, in data set [2], the IC50 was determined as 2.9 nM.
In the case of `Cc1cc(Nc2cc(C(F)F)ccn2)nc(-c2ccc([C@](C)(O)[C@H]3CC[C@H](C(=O)OCn4ccnc4)CC3)nc2)c1` [Example 6-4, 1H-imidazol-1-ylmethyl trans-4-[(1R)-1-(6-{[4-(difluoromethyl)pyridin-2-yl]amino}-4-methyl-2,3′-bipyridin-6′-yl)-1-hydroxyethyl]cyclohexanecarboxylate], the concentration in solution in data set [1] (setting [3]) (solubility) came to 156 µM (≈ 87.8 µg/mL).
For the molecule `Cc1cc(Nc2cc(C(F)F)ccn2)nc(-c2ccc([C@](C)(O)[C@H]3CC[C@H](C(=O)OCC[S+](C)[O-])CC3)nc2)c1` (stereo partly drawn) [Example 7-3, 2-(methylsulfinyl)ethyl trans-4-[(1R)-1-(6-{[4-(difluoromethyl)pyridin-2-yl]amino}-4-methyl-2,3′-bipyridin-6′-yl)-1-hydroxyethyl]cyclohexane-carboxylate], the IC50 in data set [2] is 3.3 nM.
The same measure, in the same setting: the result for `Cc1cc(Nc2cc(C(F)F)ccn2)nc(-c2ccc([C@](C)(O)[C@H]3CC[C@H](C(=O)OCOC(=O)OCCS(C)(=O)=O)CC3)nc2)c1` [Example 7-7, ({[2-(methylsulfonyl)ethoxy]carbonyl}oxy)methyl trans-4-[(1R)-1-(6-{[4-(difluoromethyl)pyridin-2-yl]amino}-4-methyl-2,3′-bipyridin-6′-yl)-1-hydroxyethyl]cyclohexane-carboxylate] reads 4.5 nM.
